This series can be described thus: solvent given as SMILES.

Drawing on the Deep4Chem optical property database, this text covers absorption maximum for 28 compounds.

Compound `CC(C)(C)c1ccc2c(c1)c1cc(C(C)(C)C)ccc1n2-c1ccc(S(=O)(=O)c2ccc(S(=O)(=O)c3ccc(-n4c5ccc(C(C)(C)C)cc5c5cc(C(C)(C)C)ccc54)cc3)cc2)cc1` registered an absorption maximum (in Cc1ccccc1) of 363 nm.
`CCCCCCCCCCC(CCCCCCCCCC)Cn1c2cc(-c3ccc(C(C)(C)C)cc3)c3cccc4c5ccc6c7cc(-c8cc(C(C)(C)C)cc(C(C)(C)C)c8)n8c7c(c7cc1c(c5c76)c2c34)=C1C=CC(c2cc(C(C)(C)C)cc(C(C)(C)C)c2)=[N+]1[B-]8(F)F` had an absorption maximum (in Cc1ccccc1) of 780 nm.
The same measure, in the same setting: next, `CC(C)(C)c1ccc2c(c1)c1cc(C(C)(C)C)ccc1n2-c1cc(-n2c3ccc(C(C)(C)C)cc3c3cc(C(C)(C)C)ccc32)c(-n2c3ccc(C(C)(C)C)cc3c3cc(C(C)(C)C)ccc32)c(C#N)c1-n1c2ccc(C(C)(C)C)cc2c2cc(C(C)(C)C)ccc21`: 422.84 nm.
With `CC(=O)OCCN1C(=O)c2cccc3c(Oc4ccccc4C)ccc(c23)C1=O`, the absorption maximum (in ClC(Cl)Cl) turned out to be 352 nm.
The compound `N#Cc1cccc(-c2nc(-c3ccccc3)c(-c3ccccc3)[nH]2)c1` showed an absorption maximum (in CO) of 308 nm.
In the case of `COC(=O)c1nc2c(N(C)C)nc(N)nc2n1Cc1ccccc1`, the absorption maximum is 334 nm (in C1COCCO1), 332 nm (in CC#N), 331 nm (in CO) and 330 nm (in ClCCl).
`O=C1C=C(Nc2ccc(F)cc2[N+](=O)[O-])C(=O)c2ccccc21` had an absorption maximum (in CO) of 448 nm.
Under “in ClC(Cl)Cl”, `CCCCCCCCN1C(=O)c2ccc3c4c(-c5ccc6c(c5)c5ccccc5n6-c5ccccc5)cc5c6c(cc(-c7ccc8c(c7)c7ccccc7n8-c7ccccc7)c(c7ccc(c2c37)C1=O)c64)C(=O)N(CCCCCCCC)C5=O` returned an absorption maximum of 563 nm.
As to `O=C1CCCC2=C1CC1=C(CCCC1=O)N2NC(=O)c1ccccc1`, the absorption maximum (in C1CCOC1) is 366 nm; the absorption maximum (in CC#N) turned out to be 368 nm; the absorption maximum (in CC(C)=O) is 366 nm; the absorption maximum (in CCCCCO) is 376 nm; the absorption maximum (in CO) stood at 374 nm; the absorption maximum (in ClC(Cl)Cl) is recorded as 370 nm. The same compound gave an absorption maximum (in ClCCl) of 364 nm.
Where the note is “in CO”, `CC1(C)C(/C=C/C2=C(c3ccc(C(=O)O)cc3)C(=C/C=C3/N(CCCCS(=O)(=O)[O-])c4ccccc4C3(C)C)/CC2)=[N+](CCCCS(=O)(=O)[O-])c2ccccc21` yielded an absorption maximum of 797 nm.
The compound `COc1ccc2c(c1)c1cc(OC)ccc1c1c2c2c(C(=O)NC(C)(C)C)ccc(C(=O)NC(C)(C)C)c2c2c3ccc(OC)cc3c3cc(OC)ccc3c21` displayed an absorption maximum (in ClCCl) of 414 nm.
Turning to `O=P(c1ccccc1)(c1ccccc1)c1cccc(-n2c(-c3ccccc3P(=O)(c3ccccc3)c3ccccc3)nc3ccccc32)c1`, for the setting “in ClCCl”, the absorption maximum is listed as 300 nm.
Consider `c1cc2ccc1-c1ccc(cc1)-c1ccc(s1)-c1ccc(cc1)-c1ccc(cc1)-c1ccc(s1)-c1ccc(cc1)-c1ccc(cc1)-c1ccc(s1)-c1ccc(cc1)-c1ccc(cc1)-c1ccc-2s1`, for which the absorption maximum (in C1CCOC1) was 354 nm.
For the compound `COc1ccc(-c2nc3ccccc3oc2=O)cc1`, the absorption maximum (in c1ccccc1) was 372 nm.
Consider `Cc1ccc(/C(C#N)=C/c2cc(/C=C(\C#N)c3ccc(C)cc3)c(-c3ccc(N(c4ccccc4)c4ccccc4)cc3)cc2-c2ccc(N(c3ccccc3)c3ccccc3)cc2)cc1`, for which the absorption maximum by setting is: (in C1CCCCC1) 385 nm; (in C1CCOC1) 391 nm; (in CCCCCC) 385 nm; (in CCOC(C)=O) 393 nm; (in Cc1ccccc1) 391 nm; (in ClC(Cl)Cl) 385 nm. Where the note is “in ClCCl”, this compound returned an absorption maximum of 393 nm.
With `CCCCCCCCC1(CCCCCCCC)c2cc(-c3ccc([N+](=O)[O-])cc3)ccc2-c2ccc(-c3ccc([N+](=O)[O-])cc3)cc21`, the absorption maximum came to 357 nm (in C1CCCCC1); 368 nm (in CCO); 380 nm (in CN(C)C=O); 382 nm (in CS(C)=O); 365 nm (in Cc1ccccc1); 373 nm (in ClC(Cl)Cl).
In turn, `CCc1ccc(-n2c3ccccc3c3cc4c(cc32)c2ccccc2n4-c2ccc(CC)s2)s1` came in with an absorption maximum (in ClC(Cl)Cl) of 398 nm.
Turning to `CCCCN1C(=O)c2cc(Oc3ccc(C(C)(C)C)cc3)c3c4c(Oc5ccc(C(C)(C)C)cc5)cc5c(=O)[nH]/c(=C\c6ccccn6)c6cc(Oc7ccc(C(C)(C)C)cc7)c(c7c(Oc8ccc(C(C)(C)C)cc8)cc(c2c37)C1=O)c4c56`, under “in ClCCl”, the absorption maximum stood at 615 nm.
On to `C[n+]1ccnc(/C=C/c2ccc(N(c3ccccc3)c3ccc(/C=C/c4c[n+](C)ccn4)cc3)cc2)c1`, for which the absorption maximum by setting is: (in CS(C)=O) 440 nm; (in O) 485 nm; (in OCC(O)CO) 500 nm.
`CC(C)CCCN1c2ccccc2CCc2ccccc21`: the absorption maximum was determined as 276 nm (in CC#N) and 276 nm (in CO).
`CCC1(CC)c2cc(B(c3c(C)cc(C)cc3C)c3c(C)cc(C)cc3C)ccc2-c2c1c1c(c3c2C(CC)(CC)c2cc(N(c4ccccc4)c4ccccc4)ccc2-3)C(CC)(CC)c2cc(B(c3c(C)cc(C)cc3C)c3c(C)cc(C)cc3C)ccc2-1`: the absorption maximum is, setting by setting: (in C1CCOC1) 362 nm; (in CC#N) 359 nm; (in CC(C)=O) 360 nm; (in CCCCCC) 361 nm; (in CCCO) 360 nm; (in CCO) 360 nm. For the same compound, the absorption maximum reads like this: (in Cc1ccccc1) 363 nm; (in ClC(Cl)Cl) 364 nm.
For the setting “in CO”, `c1ccc(N(c2ccccc2)c2ccc(-c3cnc(-c4ccc(N(c5ccccc5)c5ccccc5)cc4)s3)cc2)cc1` displayed an absorption maximum of 398 nm.
For the compound `CC(C)CCCCN1CCc2c1ccc1c3c(ccc21)C(=O)CCC3`, the absorption maximum reads like this: (in C1CCCCC1) 362 nm; (in CC#N) 370 nm; (in CC(C)O) 376 nm; (in CCC(C)=O) 368 nm; (in CCO) 374 nm; (in CCOC(C)=O) 366 nm. Besides, the absorption maximum was determined as 376 nm (in CS(C)=O), 368 nm (in Cc1ccccc1), 373 nm (in ClCCl) and 370 nm (in Clc1ccccc1).
Where the note is “in ClC(Cl)Cl”, `CC(C)(C)c1cccc2c1oc1nc3oc4ccc(-n5c6ccccc6c6ccccc65)cc4c3cc12` came in with an absorption maximum of 348 nm.
For the setting “in ClCCl”, `CC(C)(C)NC(=O)c1ccc(-c2cc3ccccc3o2)c2ccc3c4ccccc4c4ccccc4c3c12` had an absorption maximum of 364 nm.
On to `CCN(CC)c1ccc(/C=N/c2cc3nc4ccccc4nc3cc2/N=C/c2ccc(N(CC)CC)cc2O)c(O)c1`, for which the absorption maximum (in CC#N) was determined as 451 nm, the absorption maximum (in CN(C)C=O) was found to be 488 nm and the absorption maximum (in ClCCl) is on record as 476 nm.
`CCCCn1c(-c2ccc(-c3nnc(-c4ccc(-c5nc6c7ccccc7c7ccccc7c6n5CCCC)cc4)o3)cc2)nc2c3ccccc3c3ccccc3c21`: the absorption maximum (in ClCCl) is reported as 366 nm.
With `CCCCCCCCCCCCC1(CCCCCCCCCCCC)c2cc(-c3ccc(C=C4C(=O)c5ccccc5C4=O)cc3)ccc2-c2ccc(-c3ccc(C=C4C(=O)c5ccccc5C4=O)cc3)cc21`, the absorption maximum amounted to 433 nm (in C1CCOC1); 429 nm (in CC(C)=O); 419 nm (in CCCCCC); 437 nm (in CS(C)=O); 429 nm (in Cc1ccccc1); 438 nm (in ClC(Cl)Cl).
